Experimental data taken from patent publication US7989422B2, “Antibacterial agents” (Alchemia Limited, priority 2005, dated 2011).

Columns and labels:
Type in all cases: cell-based
[1] = test system: Staphylococcus aureus ATCC 25923; experiment: MIC against S. aureus, microbroth dilution in MH broth, without or with 5% horse serum; settings: MIC class; S. aureus ATCC 25923
Procedure: (§1) Testing was conducted to determine the in vitro antimicrobial activity of a series of compounds synthesised by Alchemia Pty Ltd. The antimicrobial activity of each compound was determined at a single concentration (128 μg/mL) in Mueller Hinton (MH) broth against the ATCC type strain of Staphylococcus aureus. […] Compounds showing activity at concentrations up to 32-64 μg/mL in the presence/absence of serum were then tested for MIC activity against a standard set of 5 microorganisms comprising of ATCC type strains of MRSA, Enterococcus faecalis, Enterococcus faecium, VRE and Escherichia coli. CLSI (formerly NCCLS) microbroth dilution technique was used.
(§2) Each compound is initially dissolved in 100 μL of DMSO. Each solution is then diluted further in 0.9 mL of sterile MH broth to give a total volume of 1 mL (1000 μg/mL) This stock solution is then further diluted in MH broth to give a test solution with final concentration of 128 μg/mL using the following formula: 0.5 ml stock in 3.4 ml MH broth
(§3) Each test organism was subcultured from the −70° C. deep freezer onto horse blood agar. The plates were streaked to obtain isolated colonies and incubated at 35° C. in non-CO2 incubator for 24 hours. A second subculture was carried out onto horse blood agar. For each test organism, 1-2 colonies were selected from an 18-24 hour culture and inoculated into 2 ml sterile MH broth. The turbidity was adjusted to 0.5 McFarland standard.
(§4) A 1:10 dilution in MH broth (200 μL in 2 ml MH) of the 0.5 McFarland control was prepared. 5 μL of this diluted solution was used to inoculate the trays.
100 μL of sterile MH broth was added in columns 2-12. 200 μL of test solution was added in column 1. 100 μL was transferred in column 2 giving a ½ dilution. 100 μL from column 2 was then transferred to column 3 (¼ dilution). This dilution was carried on until column 12. A second tray containing the same test solution was inoculated in a similar manner using sterile MH broth with 5% heat inactivated horse serum. 5 μL of organism solution was then added to each well. The plates were then sealed and incubated at 35° C. in a non-CO2 incubator for 18-24 hours. The plates were examined for growth after the incubation time.
(§5) If the test organism is sensitive to the compound in the broth the growth will be inhibited. Similarly, if the organism grows on the antibiotic containing medium then it is resistant to this particular antibiotic.

[2] = test system: Staphylococcus aureus (MRSA) ATCC 33591; experiment: MIC against MRSA, microbroth dilution; settings: MIC class
Procedure: as §1, §2, §3, §4
(§6) The trays were prepared in a similar way as mentioned above and incubated at 35° C. in a non-CO2 incubator for 18-24 hours. The plates were examined for growth after the incubation time.
(§7) After 18-24 hour incubation 5 μL from each well was then inoculated onto horse blood agar and incubated for 18-24 hours at 35° C. in a non-CO2 incubator.
as §5

[3] = test system: Enterococcus faecium ATCC 35667; experiment: MIC against E. faecium, microbroth dilution; settings: MIC class
Procedure: as §1, §2, §3, §4, §6, §7, §5

E. Faecium 51299 VanB = experiment: MIC against vancomycin-resistant enterococcus 51299 (VanB), microbroth dilution; settings: MIC class; ATCC 51299 VanB
Procedure: as §1, §2, §3, §4, §6, §7, §5

[4] = test system: Enterococcus faecalis ATCC 29212; experiment: MIC against E. faecalis, microbroth dilution; settings: MIC class
Procedure: as §1, §2, §3, §4, §6, §7, §5

Row | Compound | S. Aureus 25923 activity [1] | S. Aureus 33591 MRSA activity [2] | E. Faecium 35667 activity [3] | E. Faecium 51299 VanB activity (E. Faecium 51299 VanB) | E. Fecalis 29212 activity [4]
1 | O=C(Nc1ccc(Cl)c(C(F)(F)F)c1)NC1COC(CO)C(n2c(NCc3ccccc3)nc3cc(C(F)(F)F)cc(Cl)c32)C1O (stereo not shown) [Compound 255] | ++ (“++”: MIC (μg/mL): MIC ≦ 16) | ++ (“++”: MIC (μg/mL): MIC ≦ 16) | − (“−”: MIC (μg/mL): MIC > 64) | + (“+”: MIC (μg/mL): 64 ≧ MIC > 16) | ++ (“++”: MIC (μg/mL): MIC ≦ 16)
2 | CCCCCC(C)CCC(=O)NC1C(CO)OCC(n2c(O)nc3cc(C(F)(F)F)cc(Cl)c32)C1O (stereo not shown) [Compound 177] | + (“+”: MIC (μg/mL): 64 ≧ MIC > 16) | + (“+”: MIC (μg/mL): 64 ≧ MIC > 16) | + (“+”: MIC (μg/mL): 64 ≧ MIC > 16) | − (“−”: MIC (μg/mL): MIC > 64) | − (“−”: MIC (μg/mL): MIC > 64)
3 | O=C(Nc1ccc(Cl)c(C(F)(F)F)c1)NC1COC(CO)C(n2c(NCc3ccc(Cl)cc3)nc3cc(C(F)(F)F)ccc32)C1O (stereo not shown) [Compound 247] | ++ (“++”: MIC (μg/mL): MIC ≦ 16) | ++ (“++”: MIC (μg/mL): MIC ≦ 16) | − (“−”: MIC (μg/mL): MIC > 64) | ++ (“++”: MIC (μg/mL): MIC ≦ 16) | ++ (“++”: MIC (μg/mL): MIC ≦ 16)
4 | Nc1nc2cc(C(F)(F)F)cc(Cl)c2n1C1COC(CO)C(NC(=O)c2ccc(-c3ccccc3)cc2)C1O (stereo not shown) [Compound 155] | + (“+”: MIC (μg/mL): 64 ≧ MIC > 16) | + (“+”: MIC (μg/mL): 64 ≧ MIC > 16) | − (“−”: MIC (μg/mL): MIC > 64) | − (“−”: MIC (μg/mL): MIC > 64) | − (“−”: MIC (μg/mL): MIC > 64)
5 | O=C(Nc1ccc(Cl)c(C(F)(F)F)c1)NC1COC(CO)C(n2c(NCc3ccccc3)nc3cc(C(F)(F)F)ccc32)C1O (stereo not shown) [Compound 246] | ++ (“++”: MIC (μg/mL): MIC ≦ 16) | ++ (“++”: MIC (μg/mL): MIC ≦ 16) | + (“+”: MIC (μg/mL): 64 ≧ MIC > 16) | + (“+”: MIC (μg/mL): 64 ≧ MIC > 16) | ++ (“++”: MIC (μg/mL): MIC ≦ 16)
6 | Nc1cc(C(F)(F)F)cc(Cl)c1NC1COC(CO)C(NC(=O)c2ccc(-c3ccccc3)cc2)C1O (stereo not shown) [Compound 200] | − (“−”: MIC (μg/mL): MIC > 64) | + (“+”: MIC (μg/mL): 64 ≧ MIC > 16) | − (“−”: MIC (μg/mL): MIC > 64) | − (“−”: MIC (μg/mL): MIC > 64) | − (“−”: MIC (μg/mL): MIC > 64)
7 | CCCCCCCCCCCCC(N)C(=O)NC1C(CO)OCC(n2c(O)nc3cc(C(F)(F)F)ccc32)C1O (stereo not shown) [Compound 181] | + (“+”: MIC (μg/mL): 64 ≧ MIC > 16) | ++ (“++”: MIC (μg/mL): MIC ≦ 16) | + (“+”: MIC (μg/mL): 64 ≧ MIC > 16) | + (“+”: MIC (μg/mL): 64 ≧ MIC > 16) | + (“+”: MIC (μg/mL): 64 ≧ MIC > 16)
8 | O=C(Nc1ccc(Cl)c(C(F)(F)F)c1)NC1COC(CO)C(n2c(NCc3ccc(Cl)cc3)nc3cc(C(F)(F)F)cc(Cl)c32)C1O (stereo not shown) [Compound 256] | − (“−”: MIC (μg/mL): MIC > 64) | − (“−”: MIC (μg/mL): MIC > 64) | − (“−”: MIC (μg/mL): MIC > 64) | ++ (“++”: MIC (μg/mL): MIC ≦ 16) | ++ (“++”: MIC (μg/mL): MIC ≦ 16)
9 | O=C(NC1C(CO)OCC(n2c(O)nc3cc(C(F)(F)F)cc(Cl)c32)C1O)c1ccc(-c2ccccc2)cc1 (stereo not shown) [Compound 153] | + (“+”: MIC (μg/mL): 64 ≧ MIC > 16) | + (“+”: MIC (μg/mL): 64 ≧ MIC > 16) | − (“−”: MIC (μg/mL): MIC > 64) | − (“−”: MIC (μg/mL): MIC > 64) | + (“+”: MIC (μg/mL): 64 ≧ MIC > 16)
10 | CCCCCCCCCCCCC(N)C(=O)NC1C(CO)OCC(Nc2c(Cl)cc(C(F)(F)F)cc2[N+](=O)[O-])C1O (stereo not shown) [Compound 198] | + (“+”: MIC (μg/mL): 64 ≧ MIC > 16) | + (“+”: MIC (μg/mL): 64 ≧ MIC > 16) | + (“+”: MIC (μg/mL): 64 ≧ MIC > 16) | + (“+”: MIC (μg/mL): 64 ≧ MIC > 16) | + (“+”: MIC (μg/mL): 64 ≧ MIC > 16)
11 | O=C(Nc1ccc(Cl)c(C(F)(F)F)c1)NC1COC(CO)C(n2c(Nc3ccc(C(F)(F)F)cc3)nc3cc(C(F)(F)F)cc(Cl)c32)C1O (stereo not shown) [Compound 253] | − (“−”: MIC (μg/mL): MIC > 64) | − (“−”: MIC (μg/mL): MIC > 64) | − (“−”: MIC (μg/mL): MIC > 64) | − (“−”: MIC (μg/mL): MIC > 64) | + (“+”: MIC (μg/mL): 64 ≧ MIC > 16)
12 | CCCCCC(C)CCC(=O)NC1C(CO)OCC(n2c(S)nc3cc(C(F)(F)F)cc(Cl)c32)C1O (stereo not shown) [Compound 178] | + (“+”: MIC (μg/mL): 64 ≧ MIC > 16) | − (“−”: MIC (μg/mL): MIC > 64) | − (“−”: MIC (μg/mL): MIC > 64) | − (“−”: MIC (μg/mL): MIC > 64) | − (“−”: MIC (μg/mL): MIC > 64)
13 | NC(CC(=O)Nc1nc2cc(C(F)(F)F)ccc2n1C1C(CO)OCC(NS(=O)(=O)c2ccc(C(F)(F)F)cc2)C1O)c1ccc(-c2ccccc2)cc1 (stereo not shown) [Compound 242] | ++ (“++”: MIC (μg/mL): MIC ≦ 16) | ++ (“++”: MIC (μg/mL): MIC ≦ 16) | ++ (“++”: MIC (μg/mL): MIC ≦ 16) | − (“−”: MIC (μg/mL): MIC > 64) | ++ (“++”: MIC (μg/mL): MIC ≦ 16)
14 | CCCCCCCCCCCCC(N)C(=O)NC1C(CO)OCC(n2c(N)nc3cc(C(F)(F)F)cc(Cl)c32)C1O (stereo not shown) [Compound 187] | ++ (“++”: MIC (μg/mL): MIC ≦ 16) | ++ (“++”: MIC (μg/mL): MIC ≦ 16) | + (“+”: MIC (μg/mL): 64 ≧ MIC > 16) | ++ (“++”: MIC (μg/mL): MIC ≦ 16) | ++ (“++”: MIC (μg/mL): MIC ≦ 16)
